According to patent US20190315814A1, “LANTIBIOTIC VARIANTS AND USES THEREOF” (priority 2016, published 2019):
In brackets after ≈: the same amount, converted by molar mass. Like-named read-outs stand apart in the source and are kept apart here.

Assays:
[1] = test system: Clostridium difficile UNT103-1; experiment: Second non-cannulated Syrian hamster C. difficile infection model, oral gavage dose range-finding; type: in vivo, Golden Syrian hamsters
Protocol: (§1) Following the recovery phase, male Golden Syrian hamsters were inoculated with Clostridium difficile UNT103-1 (VA11, non epidemic (cdtB-, REA group J) Curtis Donskey, Cleveland VA Hospital, Cleveland, Ohio). On Day 1, at 24 hrs after infection, all animals received a single subcutaneous injection of clindamycin (10 mg/kg). Test article formulated at 3 to 5 different doses were administered three times per day (TID), starting on Day 2 at 18 hours after Clindamycin injection, for 5 consecutive days (Days 2 through 6), and followed until Day 22 to assess recurrence. Vancomycin (positive control) was administered once a day at 20 mg/kg on Days 2 through 6. Cecal spore counts and Toxins A and B were determined as described above.

[2] = in vitro; details: simulated gi fluid
Protocol: Assay incubation conditions included […] simulated gastric fluid (SGF, USP 39 Test Solution; 2 g/L NaCl, 7 mL/L glacial HCl, pH 1.4) containing 1.75 mg/mL Pepsin (3200-4500 U/mg) mixed with 7.5 μL of 10 mg/mL variant (or positive control, NH2-Met-Arg-Phe-Ala-OH, MRFA, CAS#67368-29-0) for a final concentration of 300 μg/ml variant in a microfuge tube. Samples were incubated at 37° C. and analyzed using HPLC or LC-MS for loss of substrate. The percent remaining, elimination rate constant (Ke), and in vitro protein half-lives were calculated. A control of SGF without enzyme was also run and analyzed in the same manner for each variant.

[3] = test system: Clostridium scindens (ATCC 35704)
[4] = test system: Eggerthella lenta (ATCC 27337)
[5] = test system: Heliobacter pylori
[6] = test system: Clostridium difficile UNT103-1; experiment: Non-cannulated Syrian hamster C. difficile infection model, oral gavage; type: in vivo, Golden Syrian hamsters; details: for Percent Survival at Day-22: oral gavage TID Days 2-6, vancomycin 20 mg/kg once a day; for Toxin A level at Day-22: first value of A/B cell; for Toxin A level at Day-22 / Toxin B level at Day-22: limit of detection 0.8; for Mean LOG10 CFU/mL of feces homogenates (cecal spore counts) at Day-22: limit of detection 2.40; for Toxin B level at Day-22: second value of A/B cell
Protocol: as §1, with “formulations” for “formulated at 3 to 5 different doses”, “above” for “above.”

[7] = test system: Lactobacillus acidophilus (CCUG 4356)
[8] = test system: VRE Enterococcus faecalis; details: VRE
[9] = test system: VRE Enterococcus faecium
[10] = simulated gi fluid
[11] = test system: Peptostreptococcus anaerobius (ATCC 27337)
[12] = FaSSIF + 1% pancreatin + 3 μg/ml trypsin + 3 μg/ml chymotrypsin half-life

Structure (SMILES)	half-life [2] [h]	MIC C. scindens [3] [µg/mL]	MIC E. lenta [4] [µg/mL]	MIC to H. Pylori without EDTA [5] [µg/mL]	MIC to H. Pylori with 0.05M EDTA [5] [µg/mL]	Percent Survival at Day-22 [6] [%]	Toxin A level at Day-22 ([6]; oral gavage) [ng/mL]	Mean LOG10 CFU/mL of feces homogenates (cecal spore counts) at Day-22 ([6]; oral gavage) [LOG10 CFU/mL]	Toxin B level at Day-22 ([6]; oral gavage) [ng/mL]	MIC L. acidophilus [7] [µg/mL]	MIC VRE ATCC 51575 [8] [µg/mL]	MIC VRE CCUG 47775 [8] [µg/mL]	MIC VRE ATCC 700221 [9] [µg/mL]	half-life [10, 12] [h]	half-life ([10]; FaSSIF only half-life) [h]	MIC P. anaerobius [11] [µg/mL]	other results
C=C1NC(=O)[C@H](Cc2c[nH]c3ccccc23)NC(=O)[C@H](NC(=O)[C@H](CCCCN)NC(=O)[C@@H](N)[C@@H](C)CC)CSC[C@@H](C(=O)N[C@H]2C(=O)N3CCC[C@H]3C(=O)NCC(=O)N[C@H](C(=O)N[C@@H](C)C(=O)N[C@@H](CC(N)=O)C(=O)NC(=CC)C(=O)NCC(=O)N[C@@H]3CSC[C@@H]4NC(=O)[C@H](Cc5ccccc5)NC(=O)[C@@H](CS/C=C\NC4=O)NC(=O)[C@H](CC(N)=O)NC(=O)[C@H](Cc4ccccc4)NC3=O)CS[C@H]2C)NC(=O)[C@H](CC(C)C)NC1=O [F1I R13N Y20F]	> 24	2 (≈ 0.921 µM)	0.125 (≈ 0.0575 µM)	8 (≈ 3.68 µM)	4	83	5.1	2.65	6	0.5 (≈ 0.23 µM)	8 (≈ 3.68 µM)	16 (≈ 7.36 µM)	8 (≈ 3.68 µM)	> 12	> 12	0.125 (≈ 0.0575 µM)	Mean LOG10 CFU/mL of feces homogenates (cecal spore counts) at Day-22 ([1]; 6 mg/Kg oral gavage TID): 5.47 LOG10 CFU/mL; Toxin A level at Day-22 ([1]; 6 mg/Kg oral gavage TID): 215.5 ng/mL; Toxin B level at Day-22 ([1]; 6 mg/Kg oral gavage TID): 242.2 ng/mL; Percent Survival at Day-22 ([1]; 6 mg/Kg oral gavage TID Days 2-6): 0%; Mean LOG10 CFU/mL of feces homogenates (cecal spore counts) at Day-22 ([1]; 20 mg/Kg oral gavage TID): 5.37 LOG10 CFU/mL; Toxin A level at Day-22 ([1]; 20 mg/Kg oral gavage TID): 165.5 ng/mL; Toxin B level at Day-22 ([1]; 20 mg/Kg oral gavage TID): 272.3 ng/mL; Percent Survival at Day-22 ([1]; 20 mg/Kg oral gavage TID Days 2-6): 33%; Mean LOG10 CFU/mL of feces homogenates (cecal spore counts) at Day-22 ([1]; 60 mg/Kg oral gavage TID): 3.18 LOG10 CFU/mL; Toxin A level at Day-22 ([1]; 60 mg/Kg oral gavage TID): 47.6 ng/mL; Toxin B level at Day-22 ([1]; 60 mg/Kg oral gavage TID): 108.7 ng/mL; Percent Survival at Day-22 ([1]; 60 mg/Kg oral gavage TID Days 2-6): 83%; Efficacy compared with Vancomycin-treated animals ([6]; end of the study at Day 22, oral gavage, in words): equal or superior efficacy
C=C1NC(=O)[C@H](Cc2c[nH]c3ccccc23)NC(=O)[C@H](NC(=O)[C@H](CCCCN)NC(=O)[C@@H](N)[C@@H](C)CC)CSC[C@@H](C(=O)N[C@H]2C(=O)N3CCC[C@H]3C(=O)NCC(=O)N[C@H](C(=O)N[C@@H](C)C(=O)N[C@@H](CC(N)=O)C(=O)NC(=CC)C(=O)NCC(=O)N[C@@H]3CSC[C@@H]4NC(=O)[C@H](Cc5ccc(O)cc5)NC(=O)[C@@H](CS/C=C\NC4=O)NC(=O)[C@H](CC(N)=O)NC(=O)[C@H](Cc4ccccc4)NC3=O)CS[C@H]2C)NC(=O)[C@H](CC(C)C)NC1=O [F1I R13N]	> 24	2 (≈ 0.914 µM)	0.5 (≈ 0.228 µM)	8 (≈ 3.66 µM)	8	66	138.1	3.64	120.2	0.5 (≈ 0.228 µM)	16 (≈ 7.31 µM)	16 (≈ 7.31 µM)	32 (≈ 14.6 µM)	> 12	> 12	0.25 (≈ 0.114 µM)	
C=C1NC(=O)[C@H](Cc2c[nH]c3ccccc23)NC(=O)[C@H](NC(=O)[C@H](CCCCN)NC(=O)[C@@H](N)CC(C)C)CSC[C@@H](C(=O)N[C@H]2C(=O)N3CCC[C@H]3C(=O)NCC(=O)N[C@H](C(=O)N[C@@H](C)C(=O)N[C@@H](C)C(=O)NC(=CC)C(=O)NCC(=O)N[C@@H]3CSC[C@@H]4NC(=O)[C@H](Cc5ccc(O)cc5)NC(=O)[C@@H](CS/C=C\NC4=O)NC(=O)[C@H](CC(N)=O)NC(=O)[C@H](Cc4ccccc4)NC3=O)CS[C@H]2C)NC(=O)[C@H](CC(C)C)NC1=O [F1L R13A]	> 24	4 (≈ 1.86 µM)	0.5 (≈ 0.233 µM)	8 (≈ 3.73 µM)	8	0	4532.5	7.28	1795.5	0.5 (≈ 0.233 µM)	32 (≈ 14.9 µM)	16 (≈ 7.46 µM)	16 (≈ 7.46 µM)	> 12	> 12	0.5 (≈ 0.233 µM)	
C=C1NC(=O)[C@H](Cc2c[nH]c3ccccc23)NC(=O)[C@H](NC(=O)[C@H](CCCCN)NC(=O)[C@@H](N)CC(C)C)CSC[C@@H](C(=O)N[C@H]2C(=O)N3CCC[C@H]3C(=O)NCC(=O)N[C@H](C(=O)N[C@@H](C)C(=O)N[C@@H](CC(N)=O)C(=O)NC(=CC)C(=O)NCC(=O)N[C@@H]3CSC[C@@H]4NC(=O)[C@H](Cc5ccc(O)cc5)NC(=O)[C@@H](CS/C=C\NC4=O)NC(=O)[C@H](CC(N)=O)NC(=O)[C@H](Cc4ccccc4)NC3=O)CS[C@H]2C)NC(=O)[C@H](CC(C)C)NC1=O [F1L R13N]	> 24	4 (≈ 1.83 µM)	0.25 (≈ 0.114 µM)	8 (≈ 3.66 µM)	8	0	5477.8	7.36	2189.1	0.5 (≈ 0.228 µM)	16 (≈ 7.31 µM)	16 (≈ 7.31 µM)	16 (≈ 7.31 µM)	> 12	> 12	0.25 (≈ 0.114 µM)	
C=C1NC(=O)[C@H](Cc2c[nH]c3ccccc23)NC(=O)[C@H](NC(=O)[C@H](CCCCN)NC(=O)[C@@H](N)[C@@H](C)CC)CSC[C@@H](C(=O)N[C@H]2C(=O)N3CCC[C@H]3C(=O)NCC(=O)N[C@H](C(=O)N[C@@H](C)C(=O)N[C@@H](CC(=O)O)C(=O)NC(=CC)C(=O)NCC(=O)N[C@@H]3CSC[C@@H]4NC(=O)[C@H](Cc5ccc(O)cc5)NC(=O)[C@@H](CS/C=C\NC4=O)NC(=O)[C@H](CC(N)=O)NC(=O)[C@H](Cc4ccccc4)NC3=O)CS[C@H]2C)NC(=O)[C@H](CC(C)C)NC1=O [F1I R13D]	> 24	8 (≈ 3.65 µM)	2 (≈ 0.913 µM)	8 (≈ 3.65 µM)	8	50	648.5	4.8	216.6	2 (≈ 0.913 µM)	32 (≈ 14.6 µM)	32 (≈ 14.6 µM)	32 (≈ 14.6 µM)	> 12	> 12	1 (≈ 0.457 µM)	
C=C1NC(=O)[C@H](Cc2c[nH]c3ccccc23)NC(=O)[C@H](NC(=O)[C@H](CCCCN)NC(=O)[C@@H](N)[C@@H](C)CC)CSC[C@@H](C(=O)N[C@H]2C(=O)N3CCC[C@H]3C(=O)NCC(=O)N[C@H](C(=O)N[C@@H](C)C(=O)N[C@@H](C)C(=O)NC(=CC)C(=O)NCC(=O)N[C@@H]3CSC[C@@H]4NC(=O)[C@H](Cc5ccc(O)cc5)NC(=O)[C@@H](CS/C=C\NC4=O)NC(=O)[C@H](CC(N)=O)NC(=O)[C@H](Cc4ccccc4)NC3=O)CS[C@H]2C)NC(=O)[C@H](CC(C)C)NC1=O [F1I R13A]	> 24	4 (≈ 1.86 µM)	2 (≈ 0.932 µM)	8 (≈ 3.73 µM)	8	50	147	4.67	205.5	0.5 (≈ 0.233 µM)	16 (≈ 7.46 µM)	16 (≈ 7.46 µM)	8 (≈ 3.73 µM)	> 12	> 12	1 (≈ 0.466 µM)	
